Measured values as given in PubChem BioAssay (NCI).
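The compound was tested at five concentrations on cells cultured in 96-well plates, with a 48-hour exposure period. GI50 marks 50% less growth. TGI: total growth inhibition.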

Legend:
Test in all cases: NCI anticancer screen, dose series, 48 h
A549 NSCLC = system: A549 NSCLC
IGROV1 ovarian = system: IGROV1 ovarian
SN12C renal = system: SN12C renal
MDA-MB-435 = system: MDA-MB-435
SNB-19 CNS = system: SNB-19 CNS
OVCAR-4 ovarian = system: OVCAR-4 ovarian
HOP-92 NSCLC = system: HOP-92 NSCLC
MCF7 breast = system: MCF7 breast
UACC-62 melanoma = system: UACC-62 melanoma
HCC-2998 colon = system: HCC-2998 colon

Row | SMILES | TGI (A549 NSCLC) [µM] | TGI (IGROV1 ovarian) [µM] | TGI (SN12C renal) [µM] | TGI (MDA-MB-435) [µM] | TGI (SNB-19 CNS) [µM] | TGI (OVCAR-4 ovarian) [µM] | TGI (HOP-92 NSCLC) [µM] | TGI (MCF7 breast) [µM] | TGI (UACC-62 melanoma) [µM] | TGI (HCC-2998 colon) [µM] | GI50 (MDA-MB-435) [µM] | GI50 (HOP-92 NSCLC) [µM] | GI50 (MCF7 breast) [µM]
1 | O=C1NC(=S)N/C1=C/c1ccccc1O | > 100 | > 100 | > 100 | > 100 | > 100 | > 100 | > 100 | > 100 | > 100 | > 100 | – | – | –
2 | CC1(C)O[C@@H](CO)[C@H]([C@@]23OC[C@H]4OC(C)(C)OC4[C@@H]2OC(C)(C)O3)O1 (stereo partly drawn) | > 100 | > 100 | > 100 | > 100 | > 100 | > 100 | > 100 | > 100 | – | > 100 | – | – | –
3 | CC1(C)COC(c2cccc(C3=NC(C)(C)CO3)c2Br)=N1 | > 100 | > 100 | – | > 100 | > 100 | > 100 | > 100 | > 100 | > 100 | > 100 | – | – | –
4 | CC1(O)C=CC2CCC1C2O (stereo not drawn) | > 100 | > 100 | > 100 | – | > 100 | > 100 | – | – | > 100 | – | – | – | –
5 | C/C(=N\NC(N)=O)C(CN1CCCCC1)C(c1ccccc1)c1c(O)c2ccccc2oc1=O (stereo not drawn) | > 100 | > 100 | > 100 | > 100 | > 100 | > 100 | > 100 | > 100 | > 100 | > 100 | > 100 | 21.6 | > 100
6 | C#CCNC(Cc1cnc[nH]1)C(=O)O (stereo not drawn) | > 100 | > 100 | > 100 | > 100 | > 100 | > 100 | > 100 | > 100 | > 100 | – | – | – | –
7 | S=C(N/N=C\C=N/NC(=S)N1CCCCCC1)N1CCCCCC1 | > 100 | > 100 | > 100 | > 100 | > 100 | – | > 100 | > 100 | > 100 | > 100 | – | – | –
8 | Nc1nc(Cl)cc(N=Nc2ccccc2)n1 | > 100 | 51.3 | > 100 | > 100 | > 100 | – | 7.53 | > 100 | > 100 | – | – | – | –
9 | CC(=O)O[C@H]1C#C/C=C\C#CC[C@@H]2C(=O)N(C(=O)OC(C)(C)C)[C@@H]12 | > 100 | > 100 | > 71.6 | > 100 | 97 | > 100 | 96.8 | > 100 | > 100 | > 67.5 | – | – | –
10 | O=C1/C(=C/c2ccccc2)CCc2ccc(Cl)nc21 | 38.4 | 17.7 | 18.6 | 30.4 | 41.5 | > 83.5 | 38.8 | 13.2 | 22.8 | 48.4 | – | – | –
11 | COc1ccc(C(O)c2ccc3c(c2)OCO3)cc1 (stereo not drawn) | > 100 | > 100 | > 100 | > 100 | > 100 | > 100 | > 100 | > 100 | > 100 | > 100 | – | – | –
